Assay results from patent US9156829B2, “Cycloalkyl and heterocycloalkyl compounds as orexin receptor antagonists” (Takeda Pharmaceutical Company Limited, priority 2014, dated 2015).

Experiments:
human orexin receptor 1 = human orexin receptor 1 (Homo sapiens (Human), UniProt O43613); test: Orexin antagonist activity, intracellular calcium FLIPR assay, RBL-2H3 cells expressing human orexin receptor 1; format: cell-based; settings: RBL-2H3 cells stably expressing human orexin receptor 1; orexin-A at approx. 80% maximal response; compound added 15 minutes before; read-out: Human Orexin1R IC50
Chain of human orexin receptor 1 (O43613 whole entry): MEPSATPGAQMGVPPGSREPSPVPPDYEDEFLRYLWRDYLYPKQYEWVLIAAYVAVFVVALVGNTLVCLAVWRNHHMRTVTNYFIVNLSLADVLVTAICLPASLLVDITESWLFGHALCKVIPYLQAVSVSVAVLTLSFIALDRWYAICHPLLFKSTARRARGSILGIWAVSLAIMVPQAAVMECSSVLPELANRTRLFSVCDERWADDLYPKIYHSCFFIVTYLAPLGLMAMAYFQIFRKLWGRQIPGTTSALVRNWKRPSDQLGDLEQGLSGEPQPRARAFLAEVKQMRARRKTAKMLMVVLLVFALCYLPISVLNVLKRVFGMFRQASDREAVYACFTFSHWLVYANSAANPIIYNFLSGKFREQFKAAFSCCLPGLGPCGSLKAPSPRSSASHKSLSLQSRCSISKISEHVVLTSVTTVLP

human orexin receptor 2 = human orexin receptor 2 (Homo sapiens (Human), UniProt O43614); test: Orexin antagonist activity, intracellular calcium FLIPR assay, RBL-2H3 cells expressing human orexin receptor 2; format: cell-based; settings: RBL-2H3 cells stably expressing human orexin receptor 2; orexin-A at approx. 80% maximal response; compound added 15 minutes before; read-out: Human Orexin2R IC50
Chain of human orexin receptor 2 (O43614 whole entry): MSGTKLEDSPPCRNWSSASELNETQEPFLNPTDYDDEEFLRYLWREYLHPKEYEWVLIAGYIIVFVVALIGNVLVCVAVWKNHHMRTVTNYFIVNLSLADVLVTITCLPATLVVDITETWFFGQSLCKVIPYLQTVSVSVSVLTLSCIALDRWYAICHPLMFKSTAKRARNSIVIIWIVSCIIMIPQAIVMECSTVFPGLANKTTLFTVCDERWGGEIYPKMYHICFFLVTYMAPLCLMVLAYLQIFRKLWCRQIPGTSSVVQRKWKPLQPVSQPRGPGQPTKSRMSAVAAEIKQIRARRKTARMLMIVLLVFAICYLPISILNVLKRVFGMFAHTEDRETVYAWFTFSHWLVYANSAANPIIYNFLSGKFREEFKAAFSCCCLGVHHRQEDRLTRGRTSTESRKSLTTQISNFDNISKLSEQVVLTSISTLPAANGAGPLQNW

O=C(N[C@H]1CCC[C@@H]1Nc1cnc(C(F)(F)F)cn1)c1cc(F)ccc1-n1ccnn1 [Example 41, 5-Fluoro-2-(1H-1,2,3-triazol-1-yl)-N-[(1S,2S)-2-{[5-(trifluoromethyl)pyrazin-2-yl]amino}cyclopentyl]benzamide]
IC50 (human orexin receptor 1): 644 nM
IC50 (human orexin receptor 2): > 10000 nM

Cc1ccc(-n2ccnn2)c(C(=O)N[C@H]2CCC[C@@H]2Nc2cnc(C(F)(F)F)cn2)c1 [Example 42, 5-Methyl-2-(1H-1,2,3-triazol-1-yl)-N-[(1S,2S)-2-{[5-(trifluoromethyl)pyrazin-2-yl]amino}cyclopentyl]benzamide]
IC50 (human orexin receptor 1): 261 nM
IC50 (human orexin receptor 2): > 10000 nM

O=C(N[C@H]1CCC[C@@H]1Nc1cnc(C(F)(F)F)cn1)c1ncccc1-n1cccn1 [Example 43, 3-(1H-Pyrazol-1-yl)-N-[(1S,2S)-2-{[5-(trifluoromethyl)pyrazin-2-yl]amino}cyclopentyl]pyridine-2-carboxamide]
IC50 (human orexin receptor 1): 289 nM
IC50 (human orexin receptor 2): > 10000 nM

Cc1nnc(-c2ccccc2C(=O)N[C@H]2CCC[C@@H]2Nc2cnc(C(F)(F)F)cn2)o1 [Example 44, 2-(5-Methyl-1,3,4-oxadiazol-2-yl)-N-[(1S,2S)-2-{[5-(trifluoromethyl)pyrazin-2-yl]amino}cyclopentyl]benzamide]
IC50 (human orexin receptor 1): 199 nM
IC50 (human orexin receptor 2): > 10000 nM

O=C(N[C@H]1CCC[C@@H]1Nc1cnc(C(F)(F)F)cn1)c1cc(C(F)(F)F)ccc1-n1nccn1 [Example 45, 2-(2H-1,2,3-Triazol-2-yl)-5-(trifluoromethyl)-N-[(1S,2S)-2-{[5-(trifluoromethyl)pyrazin-2-yl]amino}cyclopentyl]benzamide]
IC50 (human orexin receptor 1): 241 nM
IC50 (human orexin receptor 2): > 10000 nM

O=C(N[C@H]1CCC[C@@H]1Nc1cnc(C(F)(F)F)cn1)c1c(F)cccc1-n1cccn1 [Example 46, 2-Fluoro-6-(1H-pyrazol-1-yl)-N-[(1S,2S)-2-{[5-(trifluoromethyl)pyrazin-2-yl]amino}cyclopentyl]benzamide]
IC50 (human orexin receptor 1): 172 nM
IC50 (human orexin receptor 2): > 10000 nM

O=C(N[C@H]1CCC[C@@H]1Nc1cnc(C(F)(F)F)cn1)c1cc(F)ccc1-n1cccn1 [Example 47, 5-Fluoro-2-(1H-pyrazol-1-yl)-N-[(1S,2S)-2-{[5-(trifluoromethyl)pyrazin-2-yl]amino}cyclopentyl]benzamide]
IC50 (human orexin receptor 1): 445 nM
IC50 (human orexin receptor 2): > 10000 nM

Cc1ccc(-n2cccn2)c(C(=O)N[C@H]2CCC[C@@H]2Nc2cnc(C(F)(F)F)cn2)c1 [Example 48, 5-Methyl-2-(1H-pyrazol-1-yl)-N-[(1S,2S)-2-{[5-(trifluoromethyl)pyrazin-2-yl]amino}cyclopentyl]benzamide]
IC50 (human orexin receptor 1): 88 nM
IC50 (human orexin receptor 2): > 10000 nM

COc1cccc(-n2cccn2)c1C(=O)N[C@H]1CCC[C@@H]1Nc1cnc(C(F)(F)F)cn1 [Example 50, 2-Methoxy-6-(1H-pyrazol-1-yl)-N-[(1S,2S)-2-{[5-(trifluoromethyl)pyrazin-2-yl]amino}cyclopentyl]benzamide]
IC50 (human orexin receptor 1): 80 nM
IC50 (human orexin receptor 2): > 10000 nM

O=C(N[C@H]1CCC[C@@H]1Nc1cnc(C(F)(F)F)cn1)c1ncccc1N1CCCCC1 [Example 51, 3-(Piperidin-1-yl)-N-[(1S,2S)-2-{[5-(trifluoromethyl)pyrazin-2-yl]amino}cyclopentyl]pyridine-2-carboxamide]
IC50 (human orexin receptor 1): 301 nM
IC50 (human orexin receptor 2): > 10000 nM

O=C(N[C@H]1CCC[C@@H]1Nc1cnc(C(F)(F)F)cn1)c1cc(Cl)ccc1-n1nccn1 [Example 52, 5-Chloro-2-(2H-1,2,3-triazol-2-yl)-N-[(1S,2S)-2-{[5-(trifluoromethyl)pyrazin-2-yl]amino}cyclopentyl]benzamide]
IC50 (human orexin receptor 1): 69 nM
IC50 (human orexin receptor 2): > 10000 nM

O=C(N[C@H]1CCC[C@@H]1Nc1cnc(C(F)(F)F)cn1)c1cccc(F)c1-n1nccn1 [Example 53, 3-Fluoro-2-(2H-1,2,3-triazol-2-yl)-N-[(1S,2S)-2-{[5-(trifluoromethyl)pyrazin-2-yl]amino}cyclopentyl]benzamide]
IC50 (human orexin receptor 1): 93 nM
IC50 (human orexin receptor 2): > 10000 nM

O=C(N[C@H]1CCC[C@@H]1Nc1cnc(C(F)(F)F)cn1)c1cc(C(F)(F)F)ccc1-n1ccnn1 [Example 54, 2-(1H-1,2,3-Triazol-1-yl)-5-(trifluoromethyl)-N-[(1S,2S)-2-{[5-(trifluoromethyl)pyrazin-2-yl]amino}cyclopentyl]benzamide]
IC50 (human orexin receptor 1): 950 nM
IC50 (human orexin receptor 2): > 10000 nM

O=C(N[C@H]1CCC[C@@H]1Nc1cnc(C(F)(F)F)cn1)c1cc(Cl)ccc1-n1ccnn1 [Example 55, 5-Chloro-2-(1H-1,2,3-triazol-1-yl)-N-[(1S,2S)-2-{[5-(trifluoromethyl)pyrazin-2-yl]amino}cyclopentyl]benzamide]
IC50 (human orexin receptor 1): 761 nM
IC50 (human orexin receptor 2): > 10000 nM

O=C(N[C@H]1CCC[C@@H]1Nc1cnc(C(F)(F)F)cn1)c1c(-n2nccn2)ccc(F)c1F [Example 56, 2,3-Difluoro-6-(2H-1,2,3-triazol-2-yl)-N-[(1S,2S)-2-{[5-(trifluoromethyl)pyrazin-2-yl]amino}cyclopentyl]benzamide]
IC50 (human orexin receptor 1): 166 nM
IC50 (human orexin receptor 2): > 10000 nM

O=C(N[C@H]1CCC[C@@H]1Nc1cnc(C(F)(F)F)cn1)c1cc(C2CC2)ccc1-n1nccn1 [Example 57, 5-Cyclopropyl-2-(2H-1,2,3-triazol-2-yl)-N-[(1S,2S)-2-{[5-(trifluoromethyl)pyrazin-2-yl]amino}cyclopentyl]benzamide]
IC50 (human orexin receptor 1): 38 nM
IC50 (human orexin receptor 2): > 10000 nM

O=C(N[C@H]1CCC[C@@H]1Nc1cnc(C(F)(F)F)cn1)c1ncccc1OC(F)(F)F [Example 58, 3-(Trifluoromethoxy)-N-[(1S,2S)-2-{[5-(trifluoromethyl)pyrazin-2-yl]amino}cyclopentyl]pyridine-2-carboxamide]
IC50 (human orexin receptor 1): 934 nM
IC50 (human orexin receptor 2): > 10000 nM

O=C(N[C@H]1CCC[C@@H]1Nc1cnc(C(F)(F)F)cn1)c1cc(Cl)ccc1-n1cccn1 [Example 59, 5-Chloro-2-(1H-pyrazol-1-yl)-N-[(1S,2S)-2-{[5-(trifluoromethyl)pyrazin-2-yl]amino}cyclopentyl]benzamide]
IC50 (human orexin receptor 1): 161 nM
IC50 (human orexin receptor 2): > 10000 nM

CCOc1cccnc1C(=O)N[C@H]1CCC[C@@H]1Nc1cnc(C(F)(F)F)cn1 [Example 60, 3-Ethoxy-N-[(1S,2S)-2-{[5-(trifluoromethyl)pyrazin-2-yl]amino}cyclopentyl]pyridine-2-carboxamide]
IC50 (human orexin receptor 1): 852 nM
IC50 (human orexin receptor 2): > 10000 nM

O=C(N[C@H]1CCC[C@@H]1Nc1cnc(C(F)(F)F)cn1)c1cc(F)cc(F)c1-n1nccn1 [Example 61, 3,5-Difluoro-2-(2H-1,2,3-triazol-2-yl)-N-[(1S,2S)-2-{[5-(trifluoromethyl)pyrazin-2-yl]amino}cyclopentyl]benzamide]
IC50 (human orexin receptor 1): 321 nM
IC50 (human orexin receptor 2): > 10000 nM

O=C(N[C@H]1CCC[C@@H]1Nc1cnc(C(F)(F)F)cn1)c1ccccc1C(F)(F)F [Example 62, 2-(Trifluoromethyl)-N-[(1S,2S)-2-{[5-(trifluoromethyl)pyrazin-2-yl]amino}cyclopentyl]benzamide]
IC50 (human orexin receptor 1): 457 nM
IC50 (human orexin receptor 2): > 10000 nM

O=C(N[C@H]1CCC[C@@H]1Nc1cnc(C(F)(F)F)cn1)c1ncccc1C1CC1 [Example 63, 3-Cyclopropyl-N-[(1S,2S)-2-{[5-(trifluoromethyl)pyrazin-2-yl]amino}cyclopentyl]pyridine-2-carboxamide]
IC50 (human orexin receptor 1): 450 nM
IC50 (human orexin receptor 2): > 10000 nM

O=C(N[C@H]1CCC[C@@H]1Nc1cnc(C(F)(F)F)cn1)c1c(F)ccc(F)c1-n1nccn1 [Example 64, 3,6-Difluoro-2-(2H-1,2,3-triazol-2-yl)-N-[(1S,2S)-2-{[5-(trifluoromethyl)pyrazin-2-yl]amino}cyclopentyl]benzamide]
IC50 (human orexin receptor 1): 57 nM
IC50 (human orexin receptor 2): > 10000 nM

O=C(N[C@H]1CCC[C@@H]1Nc1cnc(C(F)(F)F)cn1)c1ccccc1C(F)F [Example 65, 2-(Difluoromethyl)-N-[(1S,2S)-2-{[5-(trifluoromethyl)pyrazin-2-yl]amino}cyclopentyl]benzamide]
IC50 (human orexin receptor 1): 797 nM
IC50 (human orexin receptor 2): > 10000 nM

O=C(N[C@H]1CCC[C@@H]1Nc1cnc(C(F)(F)F)cn1)c1c(F)cccc1C1CC1 [Example 66, 2-Cyclopropyl-6-fluoro-N-[(1S,2S)-2-{[5-(trifluoromethyl)pyrazin-2-yl]amino}cyclopentyl]benzamide]
IC50 (human orexin receptor 1): 180 nM
IC50 (human orexin receptor 2): > 10000 nM

Cc1ccc(-n2nccn2)c(C(=O)N[C@H]2CCC[C@@H]2Nc2ccc(C(F)(F)F)nc2)c1 [Example 67, 5-Methyl-2-(2H-1,2,3-triazol-2-yl)-N-[(1S,2S)-2-{[6-(trifluoromethyl)pyridin-3-yl]amino}cyclopentyl]benzamide]
IC50 (human orexin receptor 1): 891 nM
IC50 (human orexin receptor 2): > 10000 nM

COc1cccc(OC)c1C(=O)N(C1CCC1)[C@H]1CCC[C@@H]1Nc1ccc(C(F)(F)F)cn1 [Example 68, N-Cyclobutyl-2,6-dimethoxy-N-[(1S,2S)-2-{[5-(trifluoromethyl)pyridin-2-yl]amino}cyclopentyl]benzamide]
IC50 (human orexin receptor 1): 297 nM
IC50 (human orexin receptor 2): 1610 nM

O=C(N[C@H]1CCC[C@@H]1Nc1ccc(C(F)(F)F)cn1)c1ccccc1Cl [Example 69, 2-Chloro-N-[(1S,2S)-2-{[5-(trifluoromethyl)pyridin-2-yl]amino}cyclopentyl]benzamide]
IC50 (human orexin receptor 1): 321 nM
IC50 (human orexin receptor 2): > 10000 nM

O=C(N[C@H]1CCC[C@@H]1Nc1ncc(C(F)(F)F)cn1)c1ccccc1Cl [Example 70, 2-Chloro-N-[(1S,2S)-2-{[5-(trifluoromethyl)pyrimidin-2-yl]amino}cyclopentyl]benzamide]
IC50 (human orexin receptor 1): 678 nM
IC50 (human orexin receptor 2): > 10000 nM

COc1cccc(F)c1C(=O)N[C@H]1CCC[C@@H]1Nc1ccc(C(F)(F)F)cn1 [Example 71, 2-Fluoro-6-methoxy-N-[(1S,2S)-2-{[5-(trifluoromethyl)pyridin-2-yl]amino}cyclopentyl]benzamide]
IC50 (human orexin receptor 1): 722 nM
IC50 (human orexin receptor 2): 7600 nM

O=C(N[C@H]1CCC[C@@H]1Nc1ccc(C(F)(F)F)cn1)c1c(F)cccc1F [Example 72, 2,6-Difluoro-N-[(1S,2S)-2-{[5-(trifluoromethyl)pyridin-2-yl]amino}cyclopentyl]benzamide]
IC50 (human orexin receptor 1): 479 nM
IC50 (human orexin receptor 2): > 10000 nM
